Entries after “also recorded” stand apart in the source; their conditions may differ. Where two headings read alike, the source gives them in different places. Peptide text beside a SMILES is read from it. * marks the point of attachment. βNA = c1ccc2cc(N*)ccc2c1
Legend:
[1] = tested on: Salmonella enterica serovar Typhimurium (S.Tm) within RAW 264.7 murine macrophages; assay: SAFIRE: fluorescence microscopy assay of S.Tm load within macrophages; format: cell-based; settings: for hit status in SAFIRE screen: Maybridge HitFinder v11 library screened at 25 μM; for percentage of infected macrophages (validated hit): among the 309 hits
Procedure: A high-content, high-throughput fluorescence microscopy-based screening platform to assay S.Tm load within macrophages was developed (FIG. 1A). RAW 264.7 murine macrophages, a widely used cell line for bacterial infection studies, were infected with bacteria in a standard gentamicin protection assay. The Salmonella expressing GFP driven by the sifB promoter was incubated with the compound beginning at 2 hours post-infection. At 18 hours post-infection, cells were stained with MitoTracker Red CMXRos as a marker of macrophage vitality and processed for fluorescence microscopy. Stained with DAPI. A MATLAB®-based algorithm was developed to quantify infection (FIG. 1B) and compared to statistics to describe infection. Percentage of infected cells was determined by counting the proportion of macrophages within an image with at least 2 GFP+ pixels. Infection area was calculated by normalizing the number of GFP+ pixels within a cell to the cell's total area, then averaging across all cells in an image. To evaluate the approach, 2 μg/ml rifampicin in 96-well and 384-well plates was tested in three independent replicates. The Z′-factor was employed as a measure of assay reproducibility. Numbers close to 1 indicated high reproducibility. For percentage of infected macrophages, the Z′-factor was 0.59 and 0.48 in 96-well and 384-well plates, respectively, compared with 0.66 and 0.38 for infection area. The optimal Z′-factor threshold for high-throughput screening was 0.5; however, values above 0 were considered marginal but feasible. Therefore, the percentage of infected macrophages statistic was used.
The 14,400 compound library Maybridge HitFinder™ v11 was screened, which has been extensively screened against mammalian and microbial targets. The library was screened in duplicate at 25 μM in 384-well plates (FIG. 1C). Data were normalized using the B-score method to remove positional variation. The significance of B-scores was calculated using a modified t-test assuming an inverse gamma distribution of variances. Using a dual threshold of B-score greater than 1 and standard deviation from the mean and p-value less than 0.05, 908 compounds (6.3%) were identified that decreased or increased the percentage of infected macrophages. […] Compounds that altered infection by at least 25% in 96-well plates were considered validated hits.
For high-throughput screening and validation, 7×10^3 macrophages in 40 μL or 3×10^4 macrophages in 100 μL were seeded in 384- or 96-well black-walled, glass-bottomed plates (Brooks Automation). […] Forty-five minutes after bacterial addition, 20 or 50 μL gentamicin was added to a final concentration of 40 μg/mL. […] At 2 hours post-infection, 200 or 500 nL compound was added using a pin tool (CyBio) to yield a final concentration of 25 μM. Each assay plate included rifampicin and DMSO controls. In some experiments, media was removed and replaced with fresh medium containing 40 μg/mL gentamicin and the indicated concentrations of drugs. At 17.5 hours post-infection, PBS containing MitoTracker Red CMXRos (Life Technologies) was added to yield a final concentration of 300 nM (384-well) or 100 nM (96-well). Thirty minutes later, 16% paraformaldehyde was added to a final concentration of 1-2% and incubated at room temperature for 15 minutes. Wells were washed twice with PBS and stained for 20 minutes with 1 μM DAPI; wells were washed twice and stored in 90% glycerol in PBS until imaging.
High magnification images were acquired on an Olympus IX81 inverted widefield microscope. For screening imaging, three-color images were acquired at 10× or 20× on a Cellomics ArrayScan VTI (Thermo) and exported to DIB files. At least two images were taken per well for all experiments. […]

[2] = Log D, solubility and predicted bioavailability; format: physicochemical; settings: high concentrations
S.Tm efflux pumps [3] = assay: Nile Red efflux assay; format: cell-based, Salmonella enterica serovar Typhimurium
Text: Because Hoechst and other dyes commonly used to assess efflux bind cellular components, direct measurement of efflux is not possible using these methods; instead, the Hoechst assay measures dye accumulation, the net result of entry and efflux. Further, the slow off-rate of Hoechst entails that efflux pumps have no effect on dye already bound to DNA. As a result, compounds which increase Hoechst accumulation may actually enhance dye entry by altering porins or disrupting the membrane. To more specifically measure efflux pump activity, a second technique was employed using the dye Nile Red, a lipophilic membrane-partitioning dye which fluoresces in nonpolar environments. Because Nile Red is not known to bind cellular components, to directly observe efflux cells were preloaded with the dye in the absence of glucose to reduce efflux pump activity (FIG. 7A). Upon addition of glucose, bacteria rapidly effluxed Nile Red and fluorescence returned to baseline levels (FIG. 7B, top panel). […] The initial measured fluorescence was lower for DMSO-treated cells (upper dotted line) than for PAβN-treated cells due to glucose-independent efflux during sample preparation (FIG. 8A). Next, it was determined whether efflux pump activity is restored after removal of PAβN. Bacteria were incubated with compound for 15 minutes, pelleted and resuspended in buffer lacking compound, and then stimulated with glucose (FIGS. 7C, 7E).
Nile Red assays were adapted from an established protocol. Briefly, overnight Salmonella cultures were grown in Mueller-Hinton cation-adjusted broth (Sigma), washed, and resuspended at an OD600 of 2.0. Cells were incubated in 10 μM Nile Red for 3 hours at 37° C. with aeration, then moved to room temperature for 1 hour. After pelleting at 2000× g, dye-loaded cells were aliquoted and combined with compound at the indicated concentrations. Two hundred microliters was loaded into 96-well black walled plates (Greiner) and read using a Varioskan Flash Multimode Reader with 540 nm excitation and 625 nm emission filters. We observed that during loading into plates (˜20 minutes), bacteria were able to efflux Nile Red even in the absence of glucose (FIG. 8A). To activate efflux, glucose was added to a final concentration of 2 mM. In some experiments, bacteria were treated with drug for 15 minutes, pelleted at 16,000×g, resuspended in fresh buffer, and stimulated with 2 mM glucose. All wash and incubation steps were performed in PBS with 1 mM MgCl2; incubations were performed in glass tubes to reduce adhesion of Nile Red.

S.Tm efflux pumps [4] = assay: Hoechst 33342 accumulation assay; format: cell-based, Salmonella enterica serovar Typhimurium; settings: wild-type S.Tm, 60 minutes
Procedure: Efflux pumps (EPs) represent a key pathogen virulence strategy to protect against host antimicrobials as well as therapeutic antibiotics. […] To uncover putative EPMs within our collection of hits, 58 repurchased compounds were screened in a Hoechst accumulation assay. Bacteria were incubated with Hoechst 33342, a dye which fluoresces when bound to DNA.
Hoechst accumulation assays were performed essentially as described in the literature. Briefly, overnight Salmonella cultures were washed 3 times in PBS and diluted to an OD of 0.1 in PBS with 2.5 μM Hoechst 33342 in the presence of the indicated concentrations of compounds. Fluorescence was monitored on a Biotek Synergy 2 with a 360/40 nm excitation filter and 460/40 nm emission filter. The maximum Hoechst fluorescence over 60 minutes of incubation was normalized to the signal from the equivalent number of heat-killed bacteria, after subtraction of autofluroescent signal determined from compound incubated in the absence of bacteria. Curve fitting to determine EC50s was performed using GraphPad Prism.

[5] = tested on: S.Tm wild-type SL1344, MAR1 and S10801; assay: microbe, parasite or virus in culture; format: cell-based, Salmonella enterica serovar Typhimurium; settings: for MIC: Salmonella enterica
Procedure: Increased expression or function of efflux pumps often contributes to clinical multidrug resistance. Therefore, whether the EPMs re-sensitize two multidrug resistant strains of S.Tm to tetracycline was tested. Tetracycline is an antibiotic exported by AcrAB. The MAR1 strain is derived from wild-type SL1344 was selected by exposure to tetracycline, and has increased expression of the AcrAB efflux pump. S10801 is an MDR strain isolated from the mesenteric lymph node of a septic calf and is resistant to tetracycline, ampicillin, chloramphenicol, nalidixic acid, and triple sulfa. The basis of multi-drug resistance in this strain is unknown.
Overnight Salmonella cultures were washed 3 times in PBS and diluted to an OD of 0.01 in Mueller Hinton Broth in 96-well flat bottom plates. Compound was added using a pin tool (CyBio) or manually, yielding a final concentration of no more than 1% DMSO. Plates were grown at 37° C. shaking and OD600 was monitored using a BioTek Eon incubator shaker microplate absorbance reader. For experiments in defined media, bacteria were grown in M9 minimal media supplemented with 100 mM Tris pH 7.4, 0.35% glycerol, 0.002% histidine, 10 mM MgCl2, and 0.1% casamino acids. Where indicated, media was supplemented with 5 μg/ml polymyxin B or 0.2 mM H2O2. For experiments with LL-37, bacteria were grown in M9 minimal media supplemented with 0.4% dextrose, 0.004% histidine, 1 mM MgSO4, and 5 μg/ml LL-37. For checkerboard assays, MIC was defined as the concentration at which no growth was visually observed.

S.Tm = assay: Swimming assay in soft agar (proton motive force); format: cell-based, Salmonella enterica serovar Typhimurium; settings: 400× the MIC (4 μM)
Procedure: One way to inhibit efflux pumps is to disrupt the proton motive force, which is required for transport by some EPs. […] Bacteria were injected into the center of 0.25% agar plates, and 10 μl of compound was added to paper disks on the periphery. […] Also ampicillin and rifampicin were tested. We plotted the halo radius versus the concentration as the fold above the MIC (FIG. 9G). […] Next, it was determined whether PAβN inhibited swimming; PAβN is thought to disrupt membranes over long incubations. […] Finally, the EPMs at […] were tested (FIGS. 9D-F).
Saturated overnight cultures were diluted to an OD600 of 0.01 in LB and 1 μL was injected into the center of low agar (0.25%) LB plates. Ten microliters of the indicated compounds were added to sterilized Whatman paper disks (diameter 0.7 cm) placed equidistant from the plate center.

For CN(C)CCCN1c2ccccc2CCc2ccc(Cl)cc21 [Clomipramine], the “hit status in SAFIRE screen” value [1] was “Clomipramine^1”.

With Br.NC(N)=NCCCC(NC(=O)C(N)Cc1ccccc1)C(=O)Nc1ccc2ccccc2c1 (stereo not drawn) [PAβN, Phe-Arg β-naphthylamide, reference compound] (H-Phe-Arg-βNA; configuration not given here) the “solubility in cell culture media” value [2] was “insolubility of high concentrations in cell culture media”, the “glucose-activated efflux of Nile Red” value (S.Tm efflux pumps [3]; 500 μM) was “inhibited glucose-activated efflux” and the “Nile Red efflux, dose response” value (S.Tm efflux pumps [3]; 7 minutes post-glucose addition) was “dose dependent inhibition of Nile Red efflux; also recorded: reduced the rate and extent of Nile Red export”. For the same compound, the “Nile Red efflux after washout of compound” value (S.Tm efflux pumps [3]; 15 minutes with compound, washed, then glucose) was “partially restored Nile Red export”, the “Nile Red fluorescence in the absence of glucose (basal loss)” value (S.Tm efflux pumps [3]; no glucose) was “inhibit basal loss of Nile Red” and the “Hoechst accumulation / fluorescence” value (S.Tm efflux pumps [4]) was “Hoechst accumulation increased”. The “Hoechst accumulation / fluorescence” value (S.Tm efflux pumps [4]; listed as PaβN) was “higher levels of fluorescence” and the “decrease of the tetracycline MIC” value ([5]; 250 μM (⅛ MIC), both strains MAR1 and S10801) was 4 fold.

With CN(C)[C@@H]1C(O)=C(C(N)=O)C(=O)[C@@]2(O)C(O)=C3C(=O)c4c(O)cccc4[C@@](C)(O)[C@H]3C[C@@H]12 [tetracycline] the “increase in tetracycline MIC over wild type” value ([5]; MAR1) was 2 fold, the “increase in tetracycline MIC over wild type” value ([5]; S10801) was 64 fold and the MIC ([5]; read-out: tetracycline MIC, MAR1) was 4 µg/mL. It also gave an MIC ([5]; read-out: tetracycline MIC, S10801) of 128 µg/mL and an MIC ([5]; read-out: tetracycline MIC, wild-type S.Tm) of 2 µg/mL.

For O=C(N[C@H](CO)[C@H](O)c1ccc([N+](=O)[O-])cc1)C(Cl)Cl [Chloramphenicol], the “percentage of infected macrophages (validated hit)” value ([1]; 25 μM) was “decreased the percentage of infected macrophages” and the “hit status in SAFIRE screen” value [1] was “Chloramphenicol^1”.

For O=C(NC1CCN(CCc2c[nH]c3ccccc23)CC1)c1ccccc1 [Indoramin], the “hit status in SAFIRE screen” value [1] was “Indoramin^1”.

With Nc1c2ccccc2nc2ccccc12 [9-aminoacridine] the “percentage of infected macrophages (validated hit)” value ([1]; 25 μM) was “decreased the percentage of infected macrophages” and the “hit status in SAFIRE screen” value [1] was 9-aminoacridine^1.

With O=C(O)c1cn(C2CC2)c2cc(N3CCNCC3)c(F)cc2c1=O [ciprofloxacin, reference compound] the “halo in swimming assay” value (S.Tm) was “formed a halo similar in size to that of CCCP”.

In the case of CC1(C)S[C@@H]2[C@H](N)C(=O)N2[C@H]1C(=O)O [6-aminopenicillinate], the “activity in the screen” value ([1]; 25 μM) is reported as “modest activity”, the “average B-score from the screen” value ([1]; 25 μM, duplicate, threshold −2.17) is reported as −2.29 and the “hit status in SAFIRE screen” value [1] is reported as 6-aminopenicillinate^2.

From patent US11110080B2, “Small molecule inhibitors of bacterial efflux pumps and methods of using same” (The Regents of the University of Colorado, a body Corporate, priority 2017, dated 2021)
